Patent US6673827B1, “Methods of treating fungal infections with inhibitors of NAD synthetase enzyme” (priority 1999, dated 2004)
Where two headings read alike, the source gives them in different places.

Tests used:
[1] = test system: Candida albicans LH-000664533; assay: In vitro study of inhibition of growth and lethality against yeast (MIC/MLC susceptibility test), isolate D; format: cell-based; conditions: Candida albicans, Candida albicans, 2nd pair of lines, isolate assigned by line order
[2] = test system: Torulopsis glabrata JHC-BC9951635; assay: In vitro study of inhibition of growth and lethality against yeast (MIC/MLC susceptibility test), isolate E; format: cell-based; conditions: Torulopsis glabrata, 2nd pair of lines, isolate assigned by line order
[3] = test system: Torulopsis glabrata ERH-BC9938274; assay: In vitro study of inhibition of growth and lethality against yeast (MIC/MLC susceptibility test), isolate F; format: cell-based; conditions: Nakaseomyces glabratus, Torulopsis glabrata, 1st pair of lines, isolate assigned by line order
[4] = biological target: T1, NAD synthetase (recombinant protein from B. subtilis; purified) (Bacillus subtilis, UniProt P08164); assay: NAD synthetase enzyme inhibition assay (coupled enzymatic assay, HTS); format: biochemical
T1 construct: made in house

[5] = test system: Candida albicans (ATCC 10231); assay: Minimum Inhibitory Concentration (MIC) against yeast, broth dilution; format: cell-based; conditions: Candida albicans, ATCC10231; 37° C., 20 hours, mean of duplicate; read-out: MIC Candida albicans (ATCC 10231)
[6] = test system: Candida tropicalis ATCC 28707; assay: In vitro study of inhibition of growth and lethality against yeast (MIC/MLC susceptibility test), isolate B; format: cell-based; conditions: Candida tropicalis, 1st pair of lines, isolate assigned by line order
[7] = test system: Candida albicans KJP-000531594; assay: In vitro study of inhibition of growth and lethality against yeast (MIC/MLC susceptibility test), isolate C; format: cell-based; conditions: Candida albicans, Candida albicans, 1st pair of lines
[8] = test system: Cryptococcus neoformans SLP-BC0012854; assay: In vitro study of inhibition of growth and lethality against yeast (MIC/MLC susceptibility test), isolate H; format: cell-based; conditions: Cryptococcus neoformans, 2nd pair of lines, isolate assigned by line order
[9] = test system: Candida tropicalis (ATCC 750); assay: Minimum Inhibitory Concentration (MIC) against yeast, broth dilution; format: cell-based; conditions: Candida tropicalis, ATCC750; 37° C., 20 hours, mean of duplicate
[10] = In vivo toxicity: intraperitoneal (IP) dosage in mice resulting in 50% lethality (LD50); conditions: mouse, in vivo; male CD-1 mice, single IP dose, observed 14 days
[11] = test system: Candida tropicalis (ATCC 28707-amphotericin B-resistant); assay: Minimum Inhibitory Concentration (MIC) against yeast, broth dilution; format: cell-based; conditions: Candida tropicalis, ATCC28707, 37° C., 20 hours, mean of duplicate
[12] = test system: Cryptococcus neoformans DLB-1027594CNC; assay: In vitro study of inhibition of growth and lethality against yeast (MIC/MLC susceptibility test), isolate G; format: cell-based; conditions: Cryptococcus neoformans, 1st pair of lines, isolate assigned by line order
[13] = test system: Candida tropicalis ATCC 750; assay: In vitro study of inhibition of growth and lethality against yeast (MIC/MLC susceptibility test), isolate A; format: cell-based; conditions: Candida tropicalis, 2nd pair of lines, isolate assigned by line order

T1 sequence (P08164 whole entry): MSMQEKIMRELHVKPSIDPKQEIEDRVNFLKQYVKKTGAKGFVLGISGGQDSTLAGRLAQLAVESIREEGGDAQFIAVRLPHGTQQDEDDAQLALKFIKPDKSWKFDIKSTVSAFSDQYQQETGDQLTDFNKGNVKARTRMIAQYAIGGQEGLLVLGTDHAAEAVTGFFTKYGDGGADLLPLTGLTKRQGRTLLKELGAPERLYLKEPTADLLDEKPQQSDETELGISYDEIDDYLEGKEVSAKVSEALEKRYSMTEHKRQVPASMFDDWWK

## COC(=O)c1cc2cc(OCc3ccccc3)ccc2n1CCCCCCCOC(=O)Cc1ccc([N+](C)(C)C)cc1.[I-] [Compound 988]
[1]; LH000664533, 24 h, read at 24 hr, read-out: Minimum Inhibitory Conc. (MIC), 24 hr.
  MIC: 1 µg/mL
[1]; LH000664533, 48 h, read at 48 hr, read-out: Minimum Inhibitory Conc. (MIC), 48 hr.
  MIC: 2 µg/mL
[1]; LH000664533, read-out: Minimum Lethal Conc. (MLC)
  MFC: 2 µg/mL
[2]; Nakaseomyces glabratus, JHCBC9951635, 24 h, read at 24 hr, read-out: Minimum Inhibitory Conc. (MIC), 24 hr.
  MIC: 1 µg/mL
[2]; Nakaseomyces glabratus, JHCBC9951635, 48 h, read at 48 hr, read-out: Minimum Inhibitory Conc. (MIC), 48 hr.
  MIC: 2 µg/mL
[2]; Nakaseomyces glabratus, JHCBC9951635, read-out: Minimum Lethal Conc. (MLC)
  MFC: 2 µg/mL
[2]; read at 24 hr
  Minimum Inhibitory Conc. (MIC), 24 hr.: 2 µg/mL
[3]; ERHBC9938274, 24 h, read at 24 hr, read-out: Minimum Inhibitory Conc. (MIC), 24 hr.
  MIC: 2 µg/mL
[3]; ERHBC9938274, 48 h, read at 48 hr, read-out: Minimum Inhibitory Conc. (MIC), 48 hr.
  MIC: 2 µg/mL
[3]; ERHBC9938274, read-out: Minimum Lethal Conc. (MLC)
  MFC: 2 µg/mL
[4]
  IC50: 10 µM
[4]; IC50 (μg/mL) for Inhibit. of NAD Synthetase, table of structures used in the yeast assay (Example 4)
  IC50: 14.3 µM
[5]
  MIC: 0.1 µg/mL
[6]; ATCC28707, read-out: Minimum Lethal Conc. (MLC)
  MFC: 1 µg/mL
[6]; read at 24 hr
  Minimum Inhibitory Conc. (MIC), 24 hr.: 1 µg/mL
[6]; read at 48 hr
  Minimum Inhibitory Conc. (MIC), 48 hr.: 1 µg/mL
[6]; ATCC28707, 24 h, read at 24 hr, read-out: Minimum Inhibitory Conc. (MIC), 24 hr.
  MIC: 0.5 µg/mL
[6]; ATCC28707, 48 h, read at 48 hr, read-out: Minimum Inhibitory Conc. (MIC), 48 hr.
  MIC: 0.5 µg/mL
[7]; KJP000531594, 24 h, read at 24 hr, isolate not given, assigned by line order and MLC of Table 4B, read-out: Minimum Inhibitory Conc. (MIC), 24 hr.
  MIC: 1 µg/mL
[7]; KJP000531594, 48 h, read at 48 hr, isolate assigned by line order, read-out: Minimum Inhibitory Conc. (MIC), 48 hr.
  MIC: 1 µg/mL
[7]; KJP000531594, isolate assigned by line order, read-out: Minimum Lethal Conc. (MLC)
  MFC: 1 µg/mL
[8]; read at 72 hr
  Minimum Inhibitory Conc. (MIC), 72 hr.: 2 µg/mL
[8]; SLPBC0012854, 48 h, read at 48 hr, read-out: Minimum Inhibitory Conc. (MIC), 48 hr.
  MIC: 1 µg/mL
[8]; SLPBC0012854, 72 h, read at 72 hr, read-out: Minimum Inhibitory Conc. (MIC), 72 hr.
  MIC: 1 µg/mL
[8]; SLPBC0012854, read-out: Minimum Lethal Conc. (MLC)
  MFC: 4 µg/mL
[9]
  MIC: 0.024 µg/mL
[10]
  LD50 at 14 days: 135 mg/kg
[11]
  MIC: 0.15 µg/mL
[12]; read at 72 hr
  Minimum Inhibitory Conc. (MIC), 72 hr.: 2 µg/mL
[12]; DLB1027594CNC, 48 h, read at 48 hr, read-out: Minimum Inhibitory Conc. (MIC), 48 hr.
  MIC: 1 µg/mL
[12]; DLB1027594CNC, 72 h, read at 72 hr, read-out: Minimum Inhibitory Conc. (MIC), 72 hr.
  MIC: 1 µg/mL
[12]; DLB1027594CNC, read-out: Minimum Lethal Conc. (MLC)
  MFC: 4 µg/mL
[13]; ATCC750, read-out: Minimum Lethal Conc. (MLC)
  MFC: 1 µg/mL
[13]; ATCC750, 24 h, read at 24 hr, read-out: Minimum Inhibitory Conc. (MIC), 24 hr.
  MIC: 1 µg/mL
[13]; ATCC750, 48 h, read at 48 hr, read-out: Minimum Inhibitory Conc. (MIC), 48 hr.
  MIC: 1 µg/mL
